Here are results for 1 molecule from patent US20260335323A1, “CHIMERIC MOLECULE” (UCL Business Ltd, priority 2023, published 2026).

This assay relates to c-MYC. Put plainly: c-MYC immunofluorescence in hTERT-cMYC-ER expressing RPE1 cells. The note with it: 100 nM, 72 hours, with 4-OHT. The assay is classed as cell-based, human. How it is done:
FIG. 9. (A) Schematic representation of hTERT-cMYC-ER expressing RPE1 cells. Treatment with 4-hydroxytamoxifen (4-OHT) translocates c-MYC-ER from the cytoplasm into the nucleus, simulating oncogenic c-MYC. (B) Immunofluorescence images of hTERT-cMYC-ER expressing RPE1 cells treated with DMSO, (+)-JQ1 or NZ-147 at 100 nM for 72 hours, each with or without 4-OHT.
RPE1-hTERT-c-MYC-ER cells were seeded in a 384 well PerkinElmer CellCarrier Ultra plate. In Example 8, cells were treated for 72 hours with DMSO, (+)-JQ1±4-OHT, or, NZ-147±4-OHT. In Example 9, cells were treated for 72 hours with 4-OHT, NZ-175, both, or neither. Thereafter, in both Examples 8 and 9, cells were fixed with 4% paraformaldehyde (PFA) in phosphate buffered saline (PBS) and blocked with 10% FBS and 0.1% Triton in PBS. Plates were incubated at 4° C. overnight, with 1:500 rabbit anti-c-MYC (D84C12) rabbit monoclonal antibody (#5605, Cell Signalling Technologies). The following day, plates were incubated with 1:1000 goat anti-rabbit Alexa 488 (ThermoFisher Scientific, #A-11008) and 1.62 μM Hoechst 33342 at room temperature for 1 hour before imaging. Excitation and emission spectra for each channel are as follows: Hoechst 33342=405/435-480 nm, Alexa 488=488/500-550 nm. Images were acquired at 40× and 63× magnification with water immersion lens.

In the case of `Cc1sc2c(c1C)C(c1ccc(Cl)cc1)=N[C@@H](CC(=O)NCCOCCOCCOCCn1cc(COc3ccc([C@@H](NC(=O)Nc4cc(C(F)(F)F)cc(C(F)(F)F)c4)C(=O)Nc4ccc(F)cc4F)cc3)nn1)c1nnc(C)n1-2` [NZ-147, (R)-2-(3-(3,5-bis(trifluoromethyl)phenyl)ureido)-2-(4-((1-(1-((S)-4-(4-chlorophenyl)-2,3,9-trimethyl-6H-thieno[3,2-f][1,2,4]triazolo[4,3-a][1,4]diazepin-6-yl)-2-oxo-6,9, 12-trioxa-3-azatetradecan-14-yl)-1H-1,2,3-triazol-4-yl)methoxy)phenyl)-N-(2,4-difluorophenyl) acetamide], the “nuclear c-MYC” value is recorded as “may show reduced nuclear c-MYC”.
